Laboratory results from patent publication US11912794B2, “Modulation of structured polypeptide specificity” (BicycleRD Limited, priority 2011, dated 2024).
Like-named read-outs stand apart in the source and are kept apart here. Numbered stars: 1 amine (or outer) side, 2 acyl side, 3 side chain; on linkers, the order of the positions; unused ones are H or OH. Bridge positions count the residues as written; N and C are the ends. Square brackets hold non-standard residues; d marks the D form. Peptide text beside a SMILES is read from it. Phe(4-guanidino) = N=C(N)Nc1ccc(C[C@H](N)C(=O)O)cc1; Pro(trans-4-Ph) = O=C(O)[C@@H]1C[C@@H](c2ccccc2)CN1; Pro(4R-Bn) = O=C(O)[C@@H]1C[C@@H](Cc2ccccc2)CN1; 1Nal = N[C@@H](Cc1cccc2ccccc12)C(=O)O; 2Nal = N[C@@H](Cc1ccc2ccccc2c1)C(=O)O; TBMB = c1c(C[*:1])cc(C[*:3])cc1C[*:2]; NMeR = CN[C@@H](CCCNC(=N)N)C(=O)O; 4Pal = N[C@@H](Cc1ccncc1)C(=O)O; Cha = N[C@@H](CC1CCCCC1)C(=O)O; Aze = O=C(O)[C@@H]1CCN1; Abu = CC[C@H](N)C(=O)O; Aib = CC(C)(N)C(=O)O

How the values were obtained:
human plasma Kallikrein = target: T1, human plasma Kallikrein (Homo sapiens, UniProt P03952); assay: Functional enzyme inhibition assay, fluorogenic substrate Z-PheArg-AMC; type: biochemical; details: for Ki: Ac-06-34-18(TMB)-NH2 series
T1 construct: purchased Stratech, UK
Method: Peptides were dissolved as the TFA-salts in their powder form, and stock solutions were usually prepared in water. All solutions were centrifuged and filtered ([…] syringe filters) prior absorption measurement at 280 nm. […] For peptides containing non-natural amino acids with suspected chromophoric properties (i.e. NorHar, 4PhenylPro, 3PaI, 4PaI, Tic, 4GuanPhe, 4,4-BPAI, 3,3-DPA, 1NAI, 2NAI, 4BenzylPro, Ind) concentrations were determined by weighing the powder and dissolving the peptide in a defined quantity of water.

[1] = Plasma stability profiling method 1 (35% plasma, MALDI-TOF, qualitative); type: in vitro ADME, rat; details: 35% rat plasma, 37 deg C, method 1, comparative estimate
Method: Three methods were employed to assess the stability of bicycles (peptides conjugated to molecular scaffolds) in plasma.
A rapid plasma stability profiling assay was developed that employed mass spectrometric detection (MALDI-TOF, Voyager DE, Applied Biosystems) of the parent mass, until the time when the parent peptide mass was no longer observable. Specifically, 200 uM of peptide was incubated in the presence of 35% rat or human plasma (Sera labs, using citrate as anticoagulant) at 37 deg C., which was supplemented with 1×PBS (derived from a 10×PBS Stock, Sigma). At various time points (i.e. t=0, 3, 24 hrs, henceafter daily up to 10 days), 2 uL of sample was added to 18 uL of 30 mM ammonium bicarbonate in a 1:1 mixture of acetonitrile:H2O. Samples were frozen at −80 deg C. until the time of analysis. For mass spectrometric analysis that determines the approximate detection window of the peptide, the acetonitrile:H2O-diluted sample of a given time point was spotted directly (0.7 uL) onto the MALDI plate. Matrix (alpha-cyanocinnamic acid, Sigma, prepared as a saturated solution in 1:1 acetonitrile:water containing 0.1% trifluoroacetic acid) was layered over the sample (1 uL). At a similar laser intensity setting on the MALDI TOF, the time could then be determined until parent peptide was no longer detectable. It should be noted that this is a qualitative assay serves to detect relative changes in plasma stability.

T1 sequence (P03952 20-638): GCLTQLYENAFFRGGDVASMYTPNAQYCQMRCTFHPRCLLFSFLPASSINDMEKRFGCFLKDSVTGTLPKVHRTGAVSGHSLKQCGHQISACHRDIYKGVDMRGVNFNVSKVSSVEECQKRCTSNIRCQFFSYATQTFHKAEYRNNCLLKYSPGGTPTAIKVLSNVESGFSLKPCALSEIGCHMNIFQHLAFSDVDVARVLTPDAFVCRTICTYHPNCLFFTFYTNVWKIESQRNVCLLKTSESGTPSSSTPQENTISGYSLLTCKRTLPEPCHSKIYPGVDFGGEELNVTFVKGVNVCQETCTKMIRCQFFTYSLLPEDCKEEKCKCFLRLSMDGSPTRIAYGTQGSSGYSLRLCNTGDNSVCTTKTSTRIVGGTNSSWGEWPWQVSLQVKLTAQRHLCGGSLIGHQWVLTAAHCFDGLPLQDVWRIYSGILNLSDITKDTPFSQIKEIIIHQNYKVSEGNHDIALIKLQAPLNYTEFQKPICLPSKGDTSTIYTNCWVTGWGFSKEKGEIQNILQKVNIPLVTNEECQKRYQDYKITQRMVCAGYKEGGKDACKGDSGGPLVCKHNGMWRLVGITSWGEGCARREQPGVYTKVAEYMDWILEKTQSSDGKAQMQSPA

SMILES | Ki (human plasma Kallikrein; Ki (nM) (human kallikrein)) | Observable in rat plasma, for days [1] [days] | other results
CC(=O)N[C@H]1CSCc2cc3cc(c2)CSC[C@H](NC(=O)[C@H](CCCNC(=N)N)NC(=O)[C@H](C)NC(=O)[C@@H]2CCCN2C(=O)[C@H](Cc2ccc4ccccc4c2)NC(=O)[C@H](CO)NC1=O)C(=O)N[C@@H](CC(C)C)C(=O)N[C@@H](Cc1c[nH]cn1)C(=O)N[C@@H](CCC(N)=O)C(=O)N[C@@H](CC(=O)O)C(=O)N[C@@H](CC(C)C)C(=O)N[C@H](C(N)=O)CSC3 [Ac-(06-34-18) 2NAL2] (Ac-CS[2Nal]PARCLHQDLC-NH2; linker 1-7-13 via TBMB) | 0.5 | 2 | –
CC(=O)N[C@H]1CSCc2cc3cc(c2)CSC[C@H](NC(=O)[C@H](CCCNC(=N)N)NC(=O)[C@H](C)NC(=O)[C@@H]2C[C@@H](Cc4ccccc4)CN2C(=O)[C@H](Cc2c[nH]c4ccccc24)NC(=O)[C@H](CO)NC1=O)C(=O)N[C@@H](CC(C)C)C(=O)N[C@@H](Cc1c[nH]cn1)C(=O)N[C@@H](CCC(N)=O)C(=O)N[C@@H](CC(=O)O)C(=O)N[C@@H](CC(C)C)C(=O)N[C@H](C(N)=O)CSC3 [Ac-(06-34-18) 4Benzyl Pro3] (Ac-CSW[Pro(4R-Bn)]ARCLHQDLC-NH2; linker 1-7-13 via TBMB) | 191 | 2 | –
CC(=O)N[C@H]1CSCc2cc3cc(c2)CSC[C@H](NC(=O)[C@H](CCCNC(=N)N)NC(=O)[C@H](C)NC(=O)[C@@H]2C[C@@H](c4ccccc4)CN2C(=O)[C@H](Cc2c[nH]c4ccccc24)NC(=O)[C@H](CO)NC1=O)C(=O)N[C@@H](CC(C)C)C(=O)N[C@@H](Cc1c[nH]cn1)C(=O)N[C@@H](CCC(N)=O)C(=O)N[C@@H](CC(=O)O)C(=O)N[C@@H](CC(C)C)C(=O)N[C@H](C(N)=O)CSC3 [Ac-(06-34-18) 4Phenyl Pro3] (Ac-CSW[Pro(trans-4-Ph)]ARCLHQDLC-NH2; linker 1-7-13 via TBMB) | 0.58 | 2 | –
CC[C@@H]1NC(=O)[C@@H]2CCCN2C(=O)[C@H](Cc2c[nH]c3ccccc23)NC(=O)[C@H](CO)NC(=O)[C@@H](NC(C)=O)CSCc2cc3cc(c2)CSC[C@H](NC(=O)[C@H](CCCNC(=N)N)NC1=O)C(=O)N[C@@H](CC(C)C)C(=O)N[C@@H](Cc1c[nH]cn1)C(=O)N[C@@H](CCC(N)=O)C(=O)N[C@@H](CC(=O)O)C(=O)N[C@@H](CC(C)C)C(=O)N[C@H](C(N)=O)CSC3 [Ac-(06-34-18) Aba4] (Ac-CSWP[Abu]RCLHQDLC-NH2; linker 1-7-13 via TBMB) | 0.07 | 2 | –
CC(=O)N[C@H]1CSCc2cc3cc(c2)CSC[C@H](NC(=O)[C@H](CCCNC(=N)N)NC(=O)[C@H](C)NC(=O)C(C)(C)NC(=O)[C@H](Cc2c[nH]c4ccccc24)NC(=O)[C@H](CO)NC1=O)C(=O)N[C@@H](CC(C)C)C(=O)N[C@@H](Cc1c[nH]cn1)C(=O)N[C@@H](CCC(N)=O)C(=O)N[C@@H](CC(=O)O)C(=O)N[C@@H](CC(C)C)C(=O)N[C@H](C(N)=O)CSC3 [Ac-(06-34-18) Aib3] (Ac-CSW[Aib]ARCLHQDLC-NH2; linker 1-7-13 via TBMB) | 1.2 | 2 | –
CC(=O)N[C@H]1CSCc2cc3cc(c2)CSC[C@H](NC(=O)[C@H](CCCNC(=N)N)NC(=O)C(C)(C)NC(=O)[C@@H]2CCCN2C(=O)[C@H](Cc2c[nH]c4ccccc24)NC(=O)[C@H](CO)NC1=O)C(=O)N[C@@H](CC(C)C)C(=O)N[C@@H](Cc1c[nH]cn1)C(=O)N[C@@H](CCC(N)=O)C(=O)N[C@@H](CC(=O)O)C(=O)N[C@@H](CC(C)C)C(=O)N[C@H](C(N)=O)CSC3 [Ac-(06-34-18) Aib4] (Ac-CSWP[Aib]RCLHQDLC-NH2; linker 1-7-13 via TBMB) | 289 | 7 | –
CC(=O)N[C@H]1CSCc2cc3cc(c2)CSC[C@H](NC(=O)[C@H](Cc2ccc(NC(=N)N)cc2)NC(=O)[C@H](C)NC(=O)[C@@H]2CCN2C(=O)[C@H](Cc2c[nH]c4ccccc24)NC(=O)[C@H](CO)NC1=O)C(=O)N[C@@H](CC(C)C)C(=O)N[C@@H](Cc1c[nH]cn1)C(=O)N[C@@H](CCC(N)=O)C(=O)N[C@@H](CC(=O)O)C(=O)N[C@@H](CC(C)C)C(=O)N[C@H](C(N)=O)CSC3 [Ac-(06-34-18) Aze3 4GuanPhe5] (Ac-CSW[Aze]A[Phe(4-guanidino)]CLHQDLC-NH2; linker 1-7-13 via TBMB) | 0.17 | >10 | –
CC(=O)N[C@H]1CSCc2cc3cc(c2)CSC[C@H](NC(=O)[C@H](CCCNC(=N)N)NC(=O)[C@H](C)NC(=O)[C@@H]2CCN2C(=O)[C@H](Cc2c[nH]c4ccccc24)NC(=O)[C@H](CO)NC1=O)C(=O)N[C@@H](CC(C)C)C(=O)N[C@@H](Cc1c[nH]cn1)C(=O)N[C@@H](CCC(N)=O)C(=O)N[C@@H](CC(=O)O)C(=O)N[C@@H](CC(C)C)C(=O)N[C@H](C(N)=O)CSC3 [Ac-(06-34-18) Aze3] (Ac-CSW[Aze]ARCLHQDLC-NH2; linker 1-7-13 via TBMB) | – | 2 | affinity surpassing that of wildtype by a factor (human plasma Kallikrein; vs Ac-06-34-18(TMB)-NH2): 3
CC(=O)N[C@H]1CSCc2cc3cc(c2)CSC[C@H](NC(=O)[C@H](CCCNC(=N)N)NC(=O)[C@H](C)NC(=O)[C@@H]2CCCN2C(=O)[C@@H](Cc2c[nH]c4ccccc24)NC(=O)[C@H](CO)NC1=O)C(=O)N[C@@H](CC(C)C)C(=O)N[C@@H](Cc1c[nH]cn1)C(=O)N[C@@H](CCC(N)=O)C(=O)N[C@@H](CC(=O)O)C(=O)N[C@@H](CC(C)C)C(=O)N[C@H](C(N)=O)CSC3 [Ac-(06-34-18) D-Trp2] | – | – | loss in potency / reduction in affinity compared to wildtype (human plasma Kallikrein; vs Ac-06-34-18(TMB)-NH2): 45000 fold
CC(=O)N[C@H]1CSCc2cc3cc(c2)CSC[C@H](NC(=O)[C@H](CCCNC(=N)N)NC(=O)[C@H](Cc2cccc4ccccc24)NC(=O)[C@@H]2CCCN2C(=O)[C@H](Cc2ccccc2)NC(=O)[C@H](CO)NC1=O)C(=O)N[C@@H](CC(C)C)C(=O)N[C@@H](Cc1c[nH]cn1)C(=O)N[C@@H](CCC(N)=O)C(=O)N[C@@H](CC(=O)O)C(=O)N[C@@H](CC(C)C)C(=O)N[C@H](C(N)=O)CSC3 [Ac-(06-34-18) Phe2 1Nal4] (Ac-CSFP[1Nal]RCLHQDLC-NH2; linker 1-7-13 via TBMB) | 13.5 | – | –
CC(=O)N[C@H]1CSCc2cc3cc(c2)CSC[C@H](NC(=O)[C@H](CCCNC(=N)N)NC(=O)[C@H](Cc2ccncc2)NC(=O)[C@@H]2CCCN2C(=O)[C@H](Cc2ccccc2)NC(=O)[C@H](CO)NC1=O)C(=O)N[C@@H](CC(C)C)C(=O)N[C@@H](Cc1c[nH]cn1)C(=O)N[C@@H](CCC(N)=O)C(=O)N[C@@H](CC(=O)O)C(=O)N[C@@H](CC(C)C)C(=O)N[C@H](C(N)=O)CSC3 [Ac-(06-34-18) Phe2 4Pal4] (Ac-CSFP[4Pal]RCLHQDLC-NH2; linker 1-7-13 via TBMB) | 2.2 | – | –
CC(=O)N[C@H]1CSCc2cc3cc(c2)CSC[C@H](NC(=O)[C@H](CCCNC(=N)N)N(C)C(=O)[C@H](Cc2ccc(O)cc2)NC(=O)[C@@H]2CCN2C(=O)[C@H](Cc2ccccc2)NC(=O)[C@H](CO)NC1=O)C(=O)N[C@@H](CC(C)C)C(=O)N[C@@H](Cc1c[nH]cn1)C(=O)N[C@@H](CCC(N)=O)C(=O)N[C@@H](CC(=O)O)C(=O)N[C@@H](CC(C)C)C(=O)N[C@H](C(N)=O)CSC3 [Ac-(06-34-18) Phe2 Aze3Tyr4 NMeArg5] (Ac-CSF[Aze]Y[NMeR]CLHQDLC-NH2; linker 1-7-13 via TBMB) | – | – | Ki (human plasma Kallikrein; read-out: Ki (nM) (human kallikrein)): < 1 nM
CC(=O)N[C@H]1CSCc2cc3cc(c2)CSC[C@H](NC(=O)[C@H](CCCNC(=N)N)NC(=O)[C@H](CC2CCCCC2)NC(=O)[C@@H]2CCCN2C(=O)[C@H](Cc2ccccc2)NC(=O)[C@H](CO)NC1=O)C(=O)N[C@@H](CC(C)C)C(=O)N[C@@H](Cc1c[nH]cn1)C(=O)N[C@@H](CCC(N)=O)C(=O)N[C@@H](CC(=O)O)C(=O)N[C@@H](CC(C)C)C(=O)N[C@H](C(N)=O)CSC3 [Ac-(06-34-18) Phe2 Cha4] (Ac-CSFP[Cha]RCLHQDLC-NH2; linker 1-7-13 via TBMB) | 0.91 | – | –
CN=C(NC)NCCC[C@@H]1NC(=O)[C@H](C)NC(=O)[C@@H]2CCCN2C(=O)[C@H](Cc2c[nH]c3ccccc23)NC(=O)[C@H](CO)NC(=O)[C@@H](NC(C)=O)CSCc2cc3cc(c2)CSC[C@H](NC1=O)C(=O)N[C@@H](CC(C)C)C(=O)N[C@@H](Cc1c[nH]cn1)C(=O)N[C@@H](CCC(N)=O)C(=O)N[C@@H](CC(=O)O)C(=O)N[C@@H](CC(C)C)C(=O)N[C@H](C(N)=O)CSC3 [Ac-(06-34-18) SDMA5] | 1410 | – | –
CC(C)C[C@@H]1NC(=O)[C@H](CC(=O)O)NC(=O)[C@H](CCC(N)=O)NC(=O)[C@H](Cc2c[nH]cn2)NC(=O)[C@H]([C@@H](C)O)NC(=O)[C@@H]2CSCc3cc(cc(c3)CSC[C@@H](C(=O)N[C@@H](C)C(N)=O)NC1=O)CSC[C@H](NC(=O)[C@H](C)N)C(=O)N[C@@H](CCCNC(=N)N)C(=O)N[C@@H](Cc1c[nH]c3ccccc13)C(=O)N1CCC[C@H]1C(=O)N[C@@H](C)C(=O)N[C@@H](CCCNC(=N)N)C(=O)N2 [Peptide 06-34-02] (H-ACRWPARCTHQDLCA-NH2; linker 2-8-14 via TBMB) | – | – | IC50 (human plasma Kallikrein): 0.16 nM
